Laboratory results from ChEMBL document CHEMBL5500424, “New Strategies for Responding to SARS-CoV-2: The Present and Future of Dual-Target Drugs” (J Med Chem, 2024).

Experiments:
[1] = Inhibition of SARS-CoV-2 nsp16 (1 to 298 residues) expressed in Escherichia coli BL21(DE3)RIL cells using RNA and [3H]SAM as substrate incubated for 1 hrs by SPA-based assay; parameters: species or system Severe acute respiratory syndrome coronavirus 2
[2] = Inhibition of N-terminal 6His-tagged SARS-CoV nsp14 N7-methyltransferase activity expressed in Escherichia coli using GpppAC4 synthetic RNA and [3H]-SAM as substrate incubated for 30 mins in presence of SAM by Liquid scintillation analysis; parameters: species or system Severe acute respiratory syndrome-related coronavirus
[3] = molecular target: T1, Replicase polyprotein 1ab (Severe acute respiratory syndrome coronavirus 2, UniProt P0DTD1); assay: Inhibition of C-terminal His-tagged SARS-CoV-2 PLpro BetaCoV/Wuhan/WIV04/2019 expressed in Escherichia coli BL21(DE3) using ISG-AMC substrate incubated for 3 hrs by FRET analysis
[4] = molecular target: T1, Replicase polyprotein 1ab; assay: Inhibition of SARS-CoV-2 main protease by FRET assay
SARS-CoV-2 [5] = assay: Antiviral activity against SARS CoV-2 USA-WA1/2020 infected in African green monkey Vero E6 cells assessed as reduction in viral plaque formation incubated for 3 days by plaque reduction neutralization assay; format: functional, organism-based; details: Severe acute respiratory syndrome coronavirus 2, USA-WA1/2020, Vero C1008, 72 h
SARS-CoV-2 [6] = assay: Antiviral activity against SARS-CoV-2 infected in African green monkey Vero E6 cells assessed as inhibition of virus growth; format: functional, organism-based; details: Severe acute respiratory syndrome coronavirus 2, Vero C1008
[7] = molecular target: T1, Replicase polyprotein 1ab; assay: Inhibition of recombinant SARS-CoV-2 PLpro expressed in Escherichia coli BL21 (DE3) using Arg-Leu-Arg-Gly-Gly-AMC as substrate preincubated for 5 mins followed by substrate addition measured after 6 mins by fluorescence based assay
Furin = Furin (Homo sapiens, UniProt P09958); assay: Inhibition of furin (unknown origin)
Sequence of Furin (P09958 whole entry): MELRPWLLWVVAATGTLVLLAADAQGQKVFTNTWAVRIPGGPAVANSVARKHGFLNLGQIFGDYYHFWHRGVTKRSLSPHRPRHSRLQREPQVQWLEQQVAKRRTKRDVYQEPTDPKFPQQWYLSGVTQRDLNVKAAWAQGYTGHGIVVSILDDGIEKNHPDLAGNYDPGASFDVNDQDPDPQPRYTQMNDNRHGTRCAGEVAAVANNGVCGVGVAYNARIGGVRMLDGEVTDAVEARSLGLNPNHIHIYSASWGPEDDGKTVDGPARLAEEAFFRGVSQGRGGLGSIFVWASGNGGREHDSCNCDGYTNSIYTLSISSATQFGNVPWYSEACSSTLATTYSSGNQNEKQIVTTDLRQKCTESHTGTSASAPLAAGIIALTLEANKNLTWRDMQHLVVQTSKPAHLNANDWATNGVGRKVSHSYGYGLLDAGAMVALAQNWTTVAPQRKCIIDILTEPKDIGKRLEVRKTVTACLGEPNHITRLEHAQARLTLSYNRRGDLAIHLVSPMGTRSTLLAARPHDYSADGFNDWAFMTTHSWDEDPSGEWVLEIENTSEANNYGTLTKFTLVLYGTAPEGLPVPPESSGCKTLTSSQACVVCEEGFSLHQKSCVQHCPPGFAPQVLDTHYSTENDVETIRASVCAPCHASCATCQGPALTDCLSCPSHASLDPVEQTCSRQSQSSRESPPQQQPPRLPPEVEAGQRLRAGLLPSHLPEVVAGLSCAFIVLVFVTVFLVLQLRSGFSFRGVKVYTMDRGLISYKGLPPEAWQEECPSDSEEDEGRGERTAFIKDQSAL

SARS-CoV-2 [8] = assay: microbe, parasite or virus in culture; details: Severe acute respiratory syndrome coronavirus 2, Vero, 24 h
[9] = molecular target: T1, Replicase polyprotein 1ab; assay: Inhibition of recombinant SARS-CoV-2 Main protease by FRET analysis

N#Cc1cn([C@@H]2O[C@H](CSCC[C@H](N)C(=O)O)[C@@H](O)[C@H]2O)c2ncnc(N)c12
IC50 [1]: 1200 nM
IC50 [2]: 70 nM

CCOC(=O)/C=C/[C@H](C[C@@H]1CCNC1=O)NC(=O)[C@H](Cc1ccccc1)NC(=O)[C@@H](Cc1ccc(F)cc1)NC(=O)OC(C)(C)C
IC50 [3]: 60 nM
IC50 [4]: 1800 nM

CCOC(=O)/C=C/[C@H](C[C@@H]1CCNC1=O)NC(=O)[C@H](Cc1ccccc1)NC(=O)[C@H](N)Cc1ccccc1
IC50 [3]: 60 nM

Nc1ncnc2c1ncn2[C@@H]1O[C@H](C[C@@H](CO)CC[C@H](N)C(=O)O)[C@@H](O)[C@H]1O
IC50 [1]: 3400 nM
IC50 [2]: 190 nM

CCCCCCCCCCCCCCCc1cccc(O)c1C(=O)O [ANACARDIC ACID]
EC50 (SARS-CoV-2 [5]): 9000 nM

CC(C)[C@H](NC(=O)[C@H](CCCNC(=N)N)NC(=O)N[C@@H](Cc1ccccc1)C(=O)O)C(=O)N[C@H](C=O)CCCNC(=N)N [ANTIPAIN]
EC50 (SARS-CoV-2 [6]): 640 nM
IC50 [7]: 3 nM

N=C(N)c1ccc(/N=N/Nc2ccc(C(=N)N)cc2)cc1 [DIMINAZENE]
IC50 (Furin): 580 nM

CCCCCC/C=C\CCCCCCCc1cccc(O)c1C(=O)O [GINGKOLIC ACID]
EC50 (SARS-CoV-2 [5]): 8300 nM

N=C(N)Nc1ccc(C(=O)Oc2ccc3cc(C(=N)N)ccc3c2)cc1 [NAFAMOSTAT]
EC50 (SARS-CoV-2 [8]): 10 nM

O=C(OC[C@H]1O[C@@H](OC(=O)c2cc(O)c(O)c(OC(=O)c3cc(O)c(O)c(O)c3)c2)[C@H](OC(=O)c2cc(O)c(O)c(OC(=O)c3cc(O)c(O)c(O)c3)c2)[C@@H](OC(=O)c2cc(O)c(O)c(OC(=O)c3cc(O)c(O)c(O)c3)c2)[C@@H]1OC(=O)c1cc(O)c(O)c(OC(=O)c2cc(O)c(O)c(O)c2)c1)c1cc(O)c(O)c(OC(=O)c2cc(O)c(O)c(O)c2)c1 [TANNIC ACID]
IC50 [9]: 13200 nM
